Biological target: T1, Glucose-6-phosphate 1-dehydrogenase (Leuconostoc mesenteroides, UniProt P11411)
T1 sequence (P11411 whole entry): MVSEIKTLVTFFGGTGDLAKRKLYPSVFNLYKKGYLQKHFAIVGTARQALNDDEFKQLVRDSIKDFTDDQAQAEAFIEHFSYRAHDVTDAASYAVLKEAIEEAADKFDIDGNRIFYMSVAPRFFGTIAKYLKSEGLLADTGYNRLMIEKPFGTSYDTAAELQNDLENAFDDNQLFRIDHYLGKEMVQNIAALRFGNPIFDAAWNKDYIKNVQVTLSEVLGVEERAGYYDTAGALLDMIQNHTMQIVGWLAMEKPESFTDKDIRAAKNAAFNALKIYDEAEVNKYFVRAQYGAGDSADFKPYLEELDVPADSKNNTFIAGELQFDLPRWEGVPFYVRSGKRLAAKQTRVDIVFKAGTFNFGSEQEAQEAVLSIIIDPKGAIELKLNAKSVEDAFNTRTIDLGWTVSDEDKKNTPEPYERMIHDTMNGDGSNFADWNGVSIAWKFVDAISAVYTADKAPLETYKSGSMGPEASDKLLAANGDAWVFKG
Assay: Leuconostoc G6PDH inhibition potency, SAR follow-up, counter-screen for TbHK1 inhibitor project, biochemical, analogue series, IC50 (AID 2579)

| Structure (SMILES) | IC50 [µM] |
| --- | --- |
| COc1ccc(C(=O)NCC(=O)O)cc1 | > 25 |
| Cc1cc(=O)n(-c2ccccc2)s1 | > 25 |
| O=c1cc(-c2ccccc2)sn1-c1ccccc1 | > 25 |
| COc1ccc(C(=O)Nc2ccccc2C(=O)O)cc1Cl | > 25 |
| O=c1c2ccccc2sn1-c1ccccc1Cl | > 25 |
| O=c1c2ccccc2sn1-c1ccccc1F | > 25 |
| O=C(Nc1ccccc1)c1cc(F)ccc1S | > 25 |
| O=c1c2cc(F)ccc2sn1-c1ccccc1Cl | > 25 |
| Cc1ccccc1NC(=O)Cn1sc2ccccc2c1=O | > 25 |
| O=C(Cn1sc2ccccc2c1=O)NCc1ccccc1 | > 25 |
| O=c1c2ccc(Br)cc2sn1-c1ccccc1 | > 25 |
| O=C(Cn1sc2ccccc2c1=O)NC1CCCCC1 | > 25 |
| O=C(Cn1sc2ccccc2c1=O)N1CCCCC1 | > 25 |
| O=c1c2cc(N3CCOCC3)ccc2sn1-c1ccccc1 | > 25 |
| O=c1c2cc(Br)ccc2[s+]([O-])n1-c1ccccc1 (stereo unspecified) | > 25 |
| N#Cc1ccccc1NC(=O)Cn1sc2ccccc2c1=O | > 25 |
| O=C(Cn1sc2ccccc2c1=O)Nc1ccccc1Br | > 25 |
| COc1ccc(C(=O)Nc2cccc(Cl)c2)cc1 | > 25 |
| COc1cccc(C(=O)Nc2cc(Cl)ccc2C(=O)O)c1 | > 25 |
| COc1ccc(C(=O)Nc2cc(Cl)ccc2S(N)(=O)=O)cc1 | > 25 |
| COC(=O)c1ccc(Cl)cc1NC(=O)c1ccc(Cl)cc1 | > 25 |
| COc1ccccc1C(=O)Nc1cc(Cl)ccc1C(=O)O | > 25 |
| COC(=O)c1ccc(Cl)cc1NS(=O)(=O)c1ccc(OC)cc1 | > 25 |
| O=C(O)c1ccccc1NC(=O)c1ccccc1C(=O)O | > 25 |
| COc1ccc(S(=O)(=O)Nc2cc(Cl)ccc2C(=O)O)cc1 | > 25 |
| COc1ccc(C(=O)N(C)c2cc(Cl)ccc2C(=O)O)cc1 | > 25 |

| Structure (SMILES) | IC50 [µM] |
| --- | --- |
| COc1ccc(C(=O)Nc2cc(-c3ccccc3)ccc2C(=O)O)cc1 | > 25 |
| COc1ccc(C(=O)O)c(NC(=O)c2ccc(Cl)cc2)c1 | > 25 |
| COc1cc(C(=O)Nc2cc(Cl)ccc2C(=O)O)cc(OC)c1OC | > 25 |
| CCCc1ccc(C(=O)Nc2cc(Cl)ccc2C(=O)O)cc1 | > 25 |
| Cn1c2ccccc2c(=O)n1-c1ccccc1 [1-methyl-2-phenyl-3-indazolone] | > 25 |
| Cc1ccc(-n2sc3cc(F)ccc3c2=O)c(C)c1 [2-(2,4-dimethylphenyl)-6-fluoranyl-1,2-benzothiazol-3-one] | > 25 |
| O=c1c2ccccc2sn1-c1cccc(Cl)c1 [2-(3-chlorophenyl)-1,2-benzothiazol-3-one] | > 25 |
| CC(C(=O)Nc1ccccc1)n1sc2ccccc2c1=O (stereo unspecified) [2-(3-keto-1,2-benzothiazol-2-yl)-N-phenyl-propionamide (9)] | > 25 |
| COc1cccc(-n2sc3ccccc3c2=O)c1 [2-(3-methoxyphenyl)-1,2-benzothiazol-3-one] | > 25 |
| O=c1c2ccccc2sn1-c1ccc(Cl)cc1 [2-(4-chlorophenyl)-1,2-benzothiazol-3-one] | > 25 |
| O=c1c2cc(F)ccc2sn1-c1ccc(Cl)cc1 [2-(4-chlorophenyl)-5-fluoranyl-1,2-benzothiazol-3-one] | > 25 |
| Cc1ccc(-n2sc3ccccc3c2=O)cc1 [2-(4-methylphenyl)-1,2-benzisothiazol-3(2H)-one] | > 25 |
| O=c1c2cccnc2sn1-c1ccccc1 [2-(Phenyl)-isothiazolo[5,4-b]pyridin-3(2H)-one] | > 25 |
| O=c1ccsn1-c1ccccc1 [2-Phenyl-isothiazol-3-one] | > 25 |
| COc1ccc(C(=O)Nc2cc(C(F)(F)F)ccc2C(=O)O)cc1 [2-[(4-methoxybenzoyl)amino]-4-(trifluoromethyl)benzoic acid] | > 25 |
| COc1ccc(C(=O)NC(C(=O)O)c2ccccc2)cc1 (stereo unspecified) [2-[(4-methoxyphenyl)carbonylamino]-2-phenyl-ethanoic acid] | > 25 |
| COc1ccc(C(=O)Nc2cc(C)ccc2C(=O)O)cc1 [2-[(4-methoxyphenyl)carbonylamino]-4-methyl-benzoic acid] | > 25 |
| O=C(O)c1ccc(Cl)cc1NC(=O)c1coc2ccccc12 [2-[[3-benzofuranyl(oxo)methyl]amino]-4-chlorobenzoic acid] | > 25 |
| O=C(Nc1cc(Cl)ccc1C(=O)O)c1ccccc1 [2-benzamido-4-chlorobenzoic acid] | > 25 |
| O=c1c2ccccc2sn1-c1ccccc1 [2-phenyl-1,2-benzothiazol-3-one] | > 25 |
| COc1ccc(C(=O)NC(CC(=O)O)c2cccc(Cl)c2)cc1 (stereo unspecified) [3-(3-chlorophenyl)-3-[(4-methoxybenzoyl)amino]propanoic acid] | > 25 |
| CN(C)S(=O)(=O)c1cccc(-n2sc3ccccc3c2=O)c1 [3-(3-keto-1,2-benzothiazol-2-yl)-N,N-dimethyl-benzenesulfonamide] | > 25 |
| O=C(CCn1sc2ccccc2c1=O)Nc1ccccc1 [3-(3-oxidanylidene-1,2-benzothiazol-2-yl)-N-phenyl-propanamide] | > 25 |
| COc1ccc(C(=O)NC(CC(=O)O)c2ccc(Cl)cc2)cc1 (stereo unspecified) [3-(4-chlorophenyl)-3-[(4-methoxyphenyl)carbonylamino]propanoic acid] | > 25 |
| COc1ccc(C(=O)Nc2cnccc2C(=O)O)cc1 [3-[(4-methoxybenzoyl)amino]pyridine-4-carboxylic acid] | > 25 |
| CCOC(=O)c1ccncc1NC(=O)c1ccc(OC)cc1 [3-[[(4-methoxyphenyl)-oxomethyl]amino]-4-pyridinecarboxylic acid ethyl ester] | > 25 |

| Structure (SMILES) | IC50 [µM] |
| --- | --- |
| N#Cc1ccc2c(=O)n(-c3ccccc3)sc2c1 [3-oxidanylidene-2-phenyl-1,2-benzothiazole-6-carbonitrile] | > 25 |
| CCc1ccc(C(=O)Nc2cc(Br)ccc2C(=O)O)cc1 [4-bromanyl-2-[(4-ethylphenyl)carbonylamino]benzoic acid] | > 25 |
| O=c1c2c(Br)cccc2sn1-c1ccccc1 [4-bromanyl-2-phenyl-1,2-benzothiazol-3-one] | > 25 |
| O=c1c(Br)csn1-c1ccc(Br)cc1 [4-bromo-2-(4-bromophenyl)-3-isothiazolone] | > 25 |
| COc1ccc(C(=O)Nc2cc(Br)ccc2C(=O)O)cc1 [4-bromo-2-[[(4-methoxyphenyl)-oxomethyl]amino]benzoic acid] | > 25 |
| O=C(Nc1cc(Cl)ccc1C(=O)O)c1ccoc1 [4-chloranyl-2-(furan-3-ylcarbonylamino)benzoic acid] | > 25 |
| O=C(Nc1cc(Cl)ccc1C(=O)O)c1ccc(Cl)cc1 [4-chloranyl-2-[(4-chlorophenyl)carbonylamino]benzoic acid] | > 25 |
| COc1ccc(C(=O)Nc2cc(Cl)ccc2C(=O)O)cc1 [4-chloranyl-2-[(4-methoxyphenyl)carbonylamino]benzoic acid] | > 25 |
| O=C(Nc1cc(Cl)ccc1C(=O)O)c1ccc(-c2ccccc2)cc1 [4-chloranyl-2-[(4-phenylphenyl)carbonylamino]benzoic acid] | > 25 |
| COc1ccc(C(=O)Nc2cc(Cl)ccc2C(=O)O)cn1 [4-chloranyl-2-[(6-methoxypyridin-3-yl)carbonylamino]benzoic acid] | > 25 |
| CC(C)Cc1ccc(C(=O)Nc2cc(Cl)ccc2C(=O)O)cc1 [4-chloranyl-2-[[4-(2-methylpropyl)phenyl]carbonylamino]benzoic acid] | > 25 |
| O=C(Nc1cc(Cl)ccc1C(=O)O)c1ccc(Cc2ccccc2)cc1 [4-chloranyl-2-[[4-(phenylmethyl)phenyl]carbonylamino]benzoic acid] | > 25 |
| O=C(Nc1cc(Cl)ccc1C(=O)O)c1ccc(C(F)(F)F)cc1 [4-chloranyl-2-[[4-(trifluoromethyl)phenyl]carbonylamino]benzoic acid] | > 25 |
| CCCCCCC(=O)Nc1cc(Cl)ccc1C(=O)O [4-chloro-2-(1-oxoheptylamino)benzoic acid] | > 25 |
| CCCCCC(=O)Nc1cc(Cl)ccc1C(=O)O [4-chloro-2-(1-oxohexylamino)benzoic acid] | > 25 |
| COc1ccc(Nc2cc(Cl)ccc2C(=O)O)cc1 [4-chloro-2-(4-methoxyanilino)benzoic acid] | > 25 |
| COc1ccc2c(c1)CN(c1cc(Cl)ccc1C(=O)O)C2=O [4-chloro-2-(6-methoxy-3-oxo-1H-isoindol-2-yl)benzoic acid] | > 25 |
| COc1ccc(C(=O)Nc2cc(Cl)ccc2C(=O)O)cc1OC [4-chloro-2-[(3,4-dimethoxybenzoyl)amino]benzoic acid] | > 25 |
| Cc1ccc(C(=O)Nc2cc(Cl)ccc2C(=O)O)cc1 [4-chloro-2-[(4-methylbenzoyl)amino]benzoic acid] | > 25 |
| COc1cccc(CC(=O)Nc2cc(Cl)ccc2C(=O)O)c1 [4-chloro-2-[[2-(3-methoxyphenyl)-1-oxoethyl]amino]benzoic acid] | > 25 |
| O=C(Nc1cc(Cl)ccc1C(=O)O)c1ccc2ccccc2c1 [4-chloro-2-[[2-naphthalenyl(oxo)methyl]amino]benzoic acid] | > 25 |
| Cc1ccc(C(=O)Nc2cc(Cl)ccc2C(=O)O)c(C)c1 [4-chloro-2-[[(2,4-dimethylphenyl)-oxomethyl]amino]benzoic acid] | > 25 |
| COC(=O)c1ccc(Cl)cc1NC(=O)c1ccccc1OC [4-chloro-2-[[(2-methoxyphenyl)-oxomethyl]amino]benzoic acid methyl ester] | > 25 |
| Cc1cccc(C(=O)Nc2cc(Cl)ccc2C(=O)O)c1 [4-chloro-2-[[(3-methylphenyl)-oxomethyl]amino]benzoic acid] | > 25 |
